The source of these data is ChEMBL document CHEMBL4342418, “1,2,3-Triazole-containing hybrids as potential anticancer agents: Current developments, action mechanisms and structure-activity relationships” (Eur J Med Chem, 2019).

For assay [1], the system named is MCF7. Briefly: cells. Format: functional, cell-based. Particulars: Homo sapiens.
Description: Antiproliferative activity against human MCF7 cells by MTT assay
Assay [2] has as its system MDA-MB-231. Description: Antiproliferative activity against human MDA-MB-231 cells by MTT assay. Format: functional, cell-based.
The test system of the next assay is MCF-10A. Briefly: Cytotoxicity against human MCF10A cells by MTT assay. It is filed as cell-based.
Assay [3] concerns A549. Description: Antiproliferative activity against human A549 cells assessed as reduction in cell viability after 48 hrs by MTT assay. It is filed as functional, cell-based. Particulars: A549, 48 h.
Another assay relates to DU-145. Briefly: Antiproliferative activity against human DU145 cells assessed as reduction in cell viability after 48 hrs by MTT assay. Format: functional, cell-based. Particulars: DU-145, 48 h.
The next assay concerns HT-29. Description: Antiproliferative activity against human HT-29 cells assessed as reduction in cell viability after 48 hrs by MTT assay. It is filed as functional, cell-based. Particulars: HT-29, 48 h.
For a further assay, the system named is Lu1. Description: Antiproliferative activity against human Lu1 cells by MTT assay. Format: functional, cell-based.
The next assay has as its system HL-60. Briefly: Antiproliferative activity against human HL60 cells by MTT assay. It is filed as functional, cell-based.
In another assay the test system is P388. Description: Antiproliferative activity against mouse P388 cells by MTT assay. Format: functional, cell-based.
The test system of assay [4] is HepG2. Description: Antiproliferative activity against human HepG2 cells by MTT assay. It is filed as functional, cell-based.
The next assay relates to KB. Briefly: Antiproliferative activity against human KB cells by MTT assay. Format: functional, cell-based.
For the next assay, the system named is T47D. Description: Antiproliferative activity against human T47D cells by MTT assay. Format: functional, cell-based.
For assay [5], the system named is MCF7. Briefly: Antiproliferative activity against human MCF7 cells assessed as reduction in cell viability after 48 hrs by SRB assay. It is filed as functional, cell-based. Conditions: MCF7, 48 h.
A further assay concerns HeLa. Description: Antiproliferative activity against human HeLa cells assessed as reduction in cell viability after 48 hrs by SRB assay. It is filed as functional.
In assay [6] the test system is HepG2. Briefly: Antiproliferative activity against human HepG2 cells assessed as reduction in cell viability after 48 hrs by SRB assay. Format: functional. Conditions: HepG2, 48 h.
The next assay relates to IMR-32. Briefly: Antiproliferative activity against human IMR32 cells assessed as reduction in cell viability after 48 hrs by SRB assay. Format: functional. Particulars: IMR-32, 48 h.
For another assay, the system named is K562. Briefly: Antiproliferative activity against human K562 cells assessed as reduction in cell viability after 24 hrs by MTT assay. It is filed as functional, cell-based. Conditions: K562, 24 h.
In another assay the test system is PC-3. Briefly: Antiproliferative activity against human PC3 cells assessed as reduction in cell viability after 24 hrs by MTT assay. It is filed as functional, cell-based. Conditions: PC-3, 24 h.
The test system of the next assay is A-431. Description: Antiproliferative activity against human A431 cells assessed as reduction in cell viability after 24 hrs by MTT assay. Format: functional, cell-based. Particulars: A-431, 24 h.
Assay [7] concerns MDA-MB-231. Description: Antiproliferative activity against human MDA-MB-231 cells assessed as reduction in cell viability after 24 hrs by MTT assay. Format: functional, cell-based. Conditions: MDA-MB-231, 24 h.
For the next assay, the system named is COLO 205. Description: Antiproliferative activity against human COLO205 cells assessed as reduction in cell viability after 24 hrs by MTT assay. Particulars: COLO 205, 24 h. Format: functional, cell-based.
Assay [8] deals with A549. Briefly: Antiproliferative activity against human A549 cells assessed as reduction in cell viability after 24 hrs by MTT assay. It is filed as functional, cell-based. Conditions: A549, 24 h.

Regarding `Cc1c(C(F)(F)F)cc(Cl)c(Cl)c1-n1nnc(-c2nn(-c3ccccc3)cc2C=O)c1C`, the IC50 lay within 6.8 to 27.6 µM with MCF7 [1], 6.8 to 27.6 µM in the assay with MDA-MB-231 [2] and 21.9 to 25.3 µM in the assay on MCF-10A.
For the compound `O=C(c1cn(Cc2cccc(Oc3ccccc3)c2)nn1)c1cccnc1Nc1ccc(F)cc1`, the IC50 in the assay on A549 [3], in the assay on DU-145 and in the assay on HT-29 was 0.1 to 1.1 µM each time.
As for `Cc1c(C(=O)Nc2ccccc2)nnn1-c1ccnc2cc(Cl)ccc12`, the IC50 is 31.7 µM with MCF7 [1] and 19.1 µM with MDA-MB-231 [2].
As to `Cc1c2ccncc2c(C)c2c1[nH]c1ccccc12` [ELLIPTECINE], the IC50 in the assay on MCF7 [1] fell in the range of 1.7 to 3.5 µM; in the assay with Lu1, 1.7 to 3.5 µM; with HL-60 it was 1.7 to 3.5 µM; with P388, 1.7 to 3.5 µM; with HepG2 [4] it was 0.93 to 1.46 µM; in the assay on KB, 0.81 to 1.26 µM.
For the compound `C=C(C)[C@@H]1CC[C@]2(COC(=O)/C=C/C(=O)OCc3cn([C@H]4C[C@H](n5ccc(=O)[nH]c5=O)O[C@@H]4CO)nn3)CC[C@]3(C)[C@H](CC[C@@H]4[C@@]5(C)CC[C@H](O)C(C)(C)[C@@H]5CC[C@]43C)C12` (stereo partly specified), the 50% inhibitory concentration (IC50) in the assay with HepG2 [4] was determined as 1.3 µM; in the assay on KB it was 0.3 µM.
Take `Cc1cn([C@H]2C[C@H](n3cc(CCOC(=O)CCC(=O)O[C@@H]4O[C@@H]5O[C@@]6(C)CC[C@H]7[C@H](C)CC[C@@H]([C@H]4C)[C@@]57OO6)nn3)[C@@H](CO)O2)c(=O)[nH]c1=O`: the IC50 was found to be 44.3 µM in the assay with HepG2 [4] and 16.5 µM with KB.
In the case of `COc1ccc(Cn2cc(Cn3c4ccccc4c(=O)c4cc(OC)ccc43)nn2)cc1`, the IC50 in the assay with MCF7 [1], with MDA-MB-231 [2] and in the assay with T47D was 11 to 16.6 µM throughout.
With `O=C(NCc1cn(CC(O)Cn2c3c(c4ccccc4c2=O)C(=O)c2ccccc2-3)nn1)c1ccc(Br)cc1` (stereo unspecified), the IC50 in the assay on HepG2 [4] turned out to be 0.76 µM; with KB, 0.79 µM.
For the compound `CN(C)CCOc1ccc(/C(=C(/CCCl)c2ccccc2)c2ccccc2)cc1` [TOREMIFENE], the values for the IC50 with MCF7 [1], in the assay with MDA-MB-231 [2] and in the assay on MCF-10A were 7 µM, 13 µM and above 100 µM, respectively.
On to `O=[N+]([O-])c1ccc(Cn2cc(COc3cnn(-c4ccc(F)cc4)c3-c3ccc(Cl)cc3)nn2)cc1`, for which the GI50 in the assay on MCF7 [5], with HeLa, with HepG2 [6] and in the assay with IMR-32 was 1.8 to 9.7 µM throughout.
On to `Cc1cn([C@H]2C[C@H](N=[N+]=[N-])[C@@H](CO)O2)c(=O)[nH]c1=O` [ZIDOVUDINE], for which the IC50 with HepG2 [4] and in the assay on KB was above 400 µM in each case.
For `C[C@H]1[C@@H](O)O[C@@H]2O[C@@]3(C)CC[C@H]4[C@H](C)CC[C@@H]1[C@@]24OO3` [ARTENIMOL], the IC50 fell in the range of 39.9 to 84.3 µM with MCF7 [1]; 39.9 to 84.3 µM with Lu1; 39.9 to 84.3 µM in the assay with HL-60; 39.9 to 84.3 µM with P388; 42.4 to 52.6 µM with K562; 42.4 to 52.6 µM in the assay on PC-3. Further, the half-maximal inhibitory concentration (IC50) was 42.4 to 52.6 µM with A-431; 42.4 to 52.6 µM in the assay on MDA-MB-231 [7]; 42.4 to 52.6 µM in the assay on COLO 205; 42.4 to 52.6 µM in the assay on A549 [8]; 63.7 µM in the assay with HepG2 [4]; 95.3 µM in the assay with KB.
On to `COc1ccc(Cn2cc(COc3cnn(-c4ccc(F)cc4)c3-c3ccc(C)cc3)nn2)cc1`, for which the GI50 with MCF7 [5], with HeLa, in the assay on HepG2 [6] and with IMR-32 was 1.8 to 9.7 µM in each case.
For `Cc1c(C(F)(F)F)cc(Cl)c(Cl)c1-n1nnc(-c2nn(-c3nncc4ccccc34)cc2C=O)c1C`, the values for the IC50 with MCF7 [1], in the assay with MDA-MB-231 [2] and with MCF-10A were 6.8 to 27.6 µM, 6.8 to 27.6 µM and 21.9 to 25.3 µM, respectively.
For `Cc1c(-n2nnc(-c3nn(-c4nncc5ccccc45)cc3C=O)c2C)cccc1C(F)(F)F`, the IC50 in the assay with MCF7 [1] is 6.8 to 27.6 µM; with MDA-MB-231 [2], 6.8 to 27.6 µM; in the assay with MCF-10A, 21.9 to 25.3 µM.
As for `C[C@H]1[C@H](OC(=O)CCC(=O)O)O[C@@H]2O[C@@]3(C)CC[C@H]4[C@H](C)CC[C@@H]1[C@@]24OO3` [ARTESUNATE], the values for the IC50 with HepG2 [4] and in the assay on KB were 59.4 µM and 78.5 µM, respectively.
